Assay results published in US20070167405A1, “Galectins -1 and -4 in tumor development” (priority 2001, published 2007).
Values joined by “and” are separate entries in the source; they are usually repeats but may differ in a detail not shown here. Equal entries are not always repeated. “Also recorded” adds a separate entry of the source. Where two headings read alike, the source gives them in different places. Each block holds one compound with its values, some of them ahead of it.

What was measured:
CD8+ CTL clone [1] = assay: CD8+ CTL clone survival after TF peptide stimulation, with galectin-1 and inhibitors; assay type: cell-based; conditions: for prevention of cell death induced by galectin-1: 4 days, FIG. 10B; for restoring the ability of CTL's to proliferate: in presence of galectin-1, FIG. 10B
Description: The ability of L2hmda to restore this activity is especially significant since TDG, a known galectin inhibitor, is toxic. However, L2hmda is not toxic. […] The CD8+ CTL clone was stimulated with TF peptide for 4 days and cell survival (% of starting number) measured by enumerating viability by trypan blue exclusion.

CD8+ CTL clone [2] = assay: Cytokine production by CD8+ CTL clone after TF peptide stimulation, with galectin-1 and inhibitor; assay type: cell-based
Description: Treatment in vitro of CD4+ and CD8+T cells with recombinant soluble galectin-1 inhibits their survival and ability to secrete cytokine, such as interferon-γ and IL-2. […] In FIG. 10A, cells are stimulated by TF peptide and the levels of interferon-γ produced measured in nanogram/milliliter (ng/ml). As shown, galectin-1 inhibits interferon-γ secretion in a dose-dependent manner. […] Similar data were seen when another cytokine, IL-2, was measured (not shown).

[3] = target: recombinant human galectin-1 (Homo sapiens, UniProt P09382); assay: SPR (BIAcore) equilibrium binding to immobilized galectin-1; set-up: key to Galectin-1 binding, KD: NB: non-binder; conditions: for binding to galectin-1 (in words): SPR assay
recombinant human galectin-1, sequence (P09382 whole entry): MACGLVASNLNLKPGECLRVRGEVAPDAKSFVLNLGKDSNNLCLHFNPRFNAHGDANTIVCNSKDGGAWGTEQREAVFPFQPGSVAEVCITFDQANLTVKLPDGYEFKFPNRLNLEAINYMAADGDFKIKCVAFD
Description: (§1) Galectin binding affinity measurements were performed in a surface plasmon resonance (SPR) assay using […] instrument (BIAcore, Inc, Uppsala, Sweden). PBS with 5 mM β-mercaptoethanol was used as running buffer for all experiments. Purified recombinant human galectin-1 and galectin-4 were immobilized at different surface densities on CM5 carboxymethyldextran chip (BIAcore) in the presence of 150 mM lactose, using standard amine coupling chemistry. Galectin immobilization was performed at 5 μl/min flow rate. To ensure the maximum possible immobilization of recombinant proteins, carboxylmethyldextran surface was activated with a 15 min pulse of a mixture of 0.05 M N-hydroxysuccinimide (NHS) with 0.2 M N-ethyl-N′-(dimethylaminopropyl) carbodiimide (EDC). Recombinant galectins, diluted to 30 μg/ml in 10 mM Na Acetate buffer (pH 4.8 for galectin-1 and pH 5.5 for galectin-4) were coupled to the surface during a 15-minute injection. Following galectin injection, remaining activated groups on the surface of the chip were deactivated with a 7 min pulse of 1 M ethanolamine hydrochloride, pH 8.5. Blank, unmodified CM5 surface was used as a negative control for the corrections for refractive index changes due to the presence of lactulosamines.
(§2) Binding of lactulosamines was performed at 80 μl/min flow rate, with injection times of 15 sec. […] Instead, the equilibrium binding levels were examined and determined the equilibrium binding constant using steady state affinity fitting model (BIAevaluation software version 3.1).

[4] = target: T1, recombinant human galectin-4 (Homo sapiens, UniProt P56470); assay: SPR (BIAcore) equilibrium binding to immobilized galectin-4; set-up: key to Galectin-4 binding, KD: NB: non-binder; conditions: for binding to galectin-4 (in words): SPR assay
T1 construct: cDNA encoding full-length human galectin-4 was amplified from an EST clone; made in house; host or cells: E. coli BL21 (DE3)pLysS
T1 sequence (P56470 1-323): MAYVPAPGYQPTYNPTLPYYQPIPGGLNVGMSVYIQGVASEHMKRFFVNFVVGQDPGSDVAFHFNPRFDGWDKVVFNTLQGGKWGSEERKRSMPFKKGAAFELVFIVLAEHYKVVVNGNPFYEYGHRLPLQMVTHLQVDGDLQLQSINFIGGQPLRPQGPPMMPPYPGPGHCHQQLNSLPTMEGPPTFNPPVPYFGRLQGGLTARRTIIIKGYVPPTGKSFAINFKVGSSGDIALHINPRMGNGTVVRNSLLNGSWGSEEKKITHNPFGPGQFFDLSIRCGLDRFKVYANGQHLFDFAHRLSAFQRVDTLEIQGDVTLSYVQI
Description: as §1, §2

[5] = target: galectin-1 binding to 90K/MAC-2BP (Homo sapiens, UniProt P09382); assay: ELISA, inhibition of galectin-1 binding to immobilized 90K; conditions: for inhibition of galectin-1 binding to 90K (in words): ELISA, FIG. 9A; for inhibition of binding of galectin-1 to 90K: at 156 μM, galectin-1 2.5 μg/ml (0.17 μM)
galectin-1 binding to 90K/MAC-2BP, sequence (P09382 2-135 limits assumed): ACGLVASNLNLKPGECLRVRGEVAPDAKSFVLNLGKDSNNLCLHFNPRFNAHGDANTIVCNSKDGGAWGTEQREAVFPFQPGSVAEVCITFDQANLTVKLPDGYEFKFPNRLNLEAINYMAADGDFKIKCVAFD
Description: (§3) Human 90K/MAC-2BP (thereafter called 90K) was purified from transfected EBNA-293 cells (lurisci, I., et al., Clin. Cancer Res. (2000) 6:1389-1393). Laminin was obtained from Boehringer Mannheim GmbH (Germany). The ELISA for galectin binding has been previously described (Tinari, N., et al., Int. J. Cancer (2001) 91:167-172). Briefly, Nunc Maxisorb microtiter wells were coated with 0.5 μg/well of 90K or laminin. Recombinant galectin-1 (2.5 μg/ml or 0.17 μM) was diluted in PBS with 0.1% Tween-20 and added to wells coated with glycoproteins, and galectin-1 binding was detected with anti-galectin-1 rabbit antiserum. In binding-inhibition experiments, recombinant galectin-1 was diluted in PBS-0.1% Tween-20 containing indicated concentration of lactulosamines or lactose.

N202.1A tumor cells = assay: N202.1A tumor growth in Neu mice; assay type: in vivo; conditions: 100 μl of 100 μM daily combined with dendritic cell therapy, 25 days, FIG. 11, listed as L2hmda
Description: Neu mice were inoculated on Day 0 with 10^6 N202.1A tumor cells. The animals were divided into four groups of four mice each. On Day 7, groups 2 and 4 were subjected to dendritic cell therapy which involved immunization with 10^6 dendritic cells pulsed with apoptotic N202.1A cells and intraperitoneal injections of recombinant IL-2 (10^4 1.U./injection) from Day 10 to […]. Groups 3 and 4 received injections of 100 μl of 100 μM L2hmda daily.

[6] = target: galectin-1 binding to laminin (Homo sapiens, UniProt P09382); assay: ELISA, inhibition of galectin-1 binding to immobilized laminin; conditions: for inhibition of galectin-1 binding to laminin (in words): ELISA, FIG. 9B; for inhibition of binding of galectin-1 to laminin: at 156 μM, galectin-1 2.5 μg/ml (0.17 μM)
galectin-1 binding to laminin, sequence (P09382 2-135 limits assumed): as above
Description: as §3

cancer cells = conditions: cited from earlier work
breast cancer cells = conditions: nude mouse model; cited from earlier work
[7] = Toxicity statement on galectin inhibitors
[8] = SPR steady state affinity fit, Table I, read-out: Galectin-1 binding, KD
[9] = SPR steady state affinity fit, Table I, read-out: Galectin-4 binding, KD
[10] = SPR steady-state analysis, read-out: KD value for galectin-1
[11] = SPR, full-length galectin-4 with two binding domains, read-out: KD for galectin-4
[12] = SPR steady state affinity fit, Table I

Compound: galectin-1: recombinant soluble galectin-1, immunosuppressive lectin added to T cells
death of T cells (CD8+ CTL clone [1]; over the 4 day period, trypan blue exclusion): 90% | IFN-γ production (ELISA) (CD8+ CTL clone [2]; supernatants 48 hr after stimulation, galectin-1 0-7 uM): suppressed in a dose dependent fashion

Kd [3, 8]: 128 µM and 223 µM | Kd [4, 9]: 770 µM and 880 µM and 1090 µM
Compound: CC(C)CC(NCC(=O)C(O)C(OC1OC(CO)C(O)C(O)C1O)C(O)CO)C(=O)O [Lactulose-D-leucine]

Compound: OCC1OC(OC2C(O)COC(O)(CNCCCCCCNCC3(O)OCC(O)C(OC4OC(CO)C(O)C(O)C4O)C3O)C2O)C(O)C(O)C1O (stereo not drawn) [Dilactulose-hexamethylenediamine, dilactulose-hexamethylenediamine]
prevention of cell death induced by galectin-1 (CD8+ CTL clone [1]; trypan blue exclusion): prevented the majority of cell death | restoring the ability of CTL's to proliferate (CD8+ CTL clone [1]): able to restore | inhibition of galectin-1 binding to 90K (in words) [5]: most potent inhibitor | inhibition of binding of galectin-1 to 90K [5]: about 80% | tumor volume (N202.1A tumor cells): superior to treatment with either alone; also recorded: very little tumor volume enhancement | half-life, weighted average of the two components of dissociation rate [3]: 7 s | binding to galectin-1 (in words) [3]: superior in binding | binding to galectin-1 (in words) ([3]; listed as L2hmda): significantly stronger | Kd [3, 10]: ~1.5 µM | half-life, fast component ([3]; corresponding to fast koff): 3 s | half-life, slow component ([3]; corresponding to slow koff): 19 s | koff, fast component ([3]; two-component dissociation model, fast component 40% of overall rate): 0.16 to 0.2 s⁻¹ | koff, slow component ([3]; two-component dissociation model, slow component 60% of overall rate): 0.036 s⁻¹ | inhibition of galectin-1 binding to laminin (in words) [6]: most potent inhibitor | inhibition of binding of galectin-1 to laminin [6]: about 70% | restoration of interferon secretion (CD8+ CTL clone [2]; galectin-1 7 μM, L2hmda 200 μM, FIG. 10C): restores the interferon 7 secretion to normal | galectin-1 mediated suppression of IFN-γ production by the CTL (CD8+ CTL clone [2]; increasing concentrations (50-200 uM) of inhibitor): completely prevented | binding to galectin-4 (in words) [4]: superior in binding | Kd [4, 9]: 78 µM and 83 µM and 105 µM and 115 µM | Kd [4, 11]: ~80 µM

Kd [3, 8]: 106 µM | Kd [4, 9]: 1040 µM
Compound: O=C(O)CCCNCC(=O)C(O)C(OC1OC(CO)C(O)C(O)C1O)C(O)CO [Lactulose-L-GABA]

inhibition of binding of galectin-1 to 90K [5]: about 20% | Kd [3, 8]: 102 µM | inhibition of binding of galectin-1 to laminin [6]: ~10% | Kd [4, 9]: 790 µM
Compound: O=C(O)CNCC(=O)C(O)C(OC1OC(CO)C(O)C(O)C1O)C(O)CO (stereo not drawn) [Lactulose-glycine]

Compound: fructose-D-leucine
binding to galectin-1 (in words) [3]: did not | binding to galectin-1 (in words) ([3]; listed as fructose coupled to leucine): unable to bind | Galectin-1 binding, KD [3, 12]: NB | binding to galectin-4 (in words) [4]: unable to bind | Galectin-4 binding, KD [4, 12]: NB

inhibition of binding of galectin-1 to 90K [5]: about 50% | binding to galectin-1 (in words) [3]: could bind | Kd [3, 8]: 113 µM and 200 µM | Kd [3, 10]: ~110 µM | inhibition of binding of galectin-1 to laminin [6]: ~40% | Kd [4, 9]: 505 µM and 800 µM and 1010 µM | Kd [4, 11]: ~800 µM
Compound: CC(C)CC(NCC(=O)C(O)C(OC1OC(CO)C(O)C(O)C1O)C(O)CO)C(=O)O [Lactulose-L-leucine, lactulose-L-leucine]
adhesion of cancer cells to endothelium (cancer cells): blocks | clonogenic growth and metastasis of breast cancer cells (breast cancer cells): block

Kd [3, 8]: 129 µM | Kd [4, 9]: 550 µM
Compound: CCC(C)C(NCC(=O)C(O)C(OC1OC(CO)C(O)C(O)C1O)C(O)CO)C(=O)O [Lactulose-L-isoleucine]

binding to galectin-1 (in words) [3]: unable to bind | Galectin-1 binding, KD [3, 12]: NB | binding to galectin-4 (in words) [4]: unable to bind | Galectin-4 binding, KD [4, 12]: NB
Compound: OC[C@H]1O[C@@](CO)(O[C@H]2O[C@H](CO)[C@@H](O)[C@H](O)[C@H]2O)[C@@H](O)[C@@H]1O [Sucrose, reference compound]

Compound: CSCCC(NCC(=O)C(O)C(OC1OC(CO)C(O)C(O)C1O)C(O)CO)C(=O)O [Lactulose-L-methionine]
Kd [3, 8]: 127 µM | Kd [4, 9]: 1270 µM

Compound: OC[C@H]1O[C@@H](S[C@@H]2O[C@H](CO)[C@H](O)[C@H](O)[C@H]2O)[C@H](O)[C@@H](O)[C@H]1O [TDG, thiodigalactolate, reference compound]
prevention of cell death induced by galectin-1 (CD8+ CTL clone [1]; trypan blue exclusion): prevented the majority of cell death | restoring the ability of CTL's to proliferate (CD8+ CTL clone [1]): able to restore | toxicity [7]: toxic

inhibition of binding of galectin-1 to 90K [5]: about 50% | Kd [3, 8]: 70 µM | inhibition of binding of galectin-1 to laminin [6]: ~40% | Kd [4, 9]: 530 µM
Compound: O=C(CN1CCCC1C(=O)O)C(O)C(OC1OC(CO)C(O)C(O)C1O)C(O)CO [Lactulose-L-proline]

Kd [3, 8]: 200 µM | Kd [4, 9]: 1090 µM and 1260 µM
Compound: O=C(O)C(Cc1ccccc1)NCC(=O)C(O)C(OC1OC(CO)C(O)C(O)C1O)C(O)CO [Lactulose-L-phenylalanine]

binding to galectin-1 (in words) [3]: unable to bind | Galectin-1 binding, KD [3, 12]: NB | binding to galectin-4 (in words) [4]: unable to bind | Galectin-4 binding, KD [4, 12]: NB
Compound: OC[C@H]1O[C@H](O[C@H]2[C@H](O)[C@@H](O)[C@H](O)O[C@@H]2CO)[C@H](O)[C@@H](O)[C@@H]1O [Maltose, reference compound]

Kd [3, 8]: 150 µM | Kd [4, 9]: 1490 µM and 1720 µM
Compound: CC(NCC(=O)C(O)C(OC1OC(CO)C(O)C(O)C1O)C(O)CO)C(=O)O [Lactulose-L-alanine]

inhibition of galectin-1 binding to 90K (in words) [5]: inhibited | inhibition of binding of galectin-1 to 90K [5]: about 20% | binding to galectin-1 (in words) [3]: able to bind | inhibition of galectin-1 binding to laminin (in words) [6]: inhibited | inhibition of binding of galectin-1 to laminin [6]: ~10% | binding to galectin-4 (in words) [4]: able to bind
Compound: OC[C@H]1O[C@@H](O[C@H]2[C@H](O)[C@@H](O)[C@H](O)O[C@@H]2CO)[C@H](O)[C@@H](O)[C@H]1O [β-lactose, reference compound]

Compound: O=C(O)C(Cc1c[nH]cn1)NCC(=O)C(O)C(OC1OC(CO)C(O)C(O)C1O)C(O)CO [Lactulose-L-histidine]
Kd [3, 8]: 191 µM | Kd [4, 9]: 2280 µM

Kd [3, 8]: 158 µM | Kd [4, 9]: 719 µM and 730 µM
Compound: CC(C)C(NCC(=O)C(O)C(OC1OC(CO)C(O)C(O)C1O)C(O)CO)C(=O)O [Lactulose-L-valine]

Kd [3, 8]: 133 µM | Kd [4, 9]: 1010 µM
Compound: CC(NCC(=O)C(O)C(OC1OC(CO)C(O)C(O)C1O)C(O)CO)C(=O)O [Lactulose-D-alanine]

Kd [3, 8]: 376 µM | Kd [4, 9]: 3830 µM
Compound: CC(O)C(NCC(=O)C(O)C(OC1OC(CO)C(O)C(O)C1O)C(O)CO)C(=O)O [Lactulose-L-threonine]
